Laboratory results reported in ChEMBL document CHEMBL4477158, “Constituents of Fagraea fragrans with Antimycobacterial Activity in Combination with Erythromycin” (2016).

Legend:
Format in all cases: functional
[1] = system: Staphylococcus aureus; assay: Antibacterial activity against Staphylococcus aureus incubated for 16 to 18 hrs by broth microdilution assay
[2] = system: Escherichia coli; assay: Antibacterial activity against Escherichia coli incubated for 16 to 18 hrs by broth microdilution assay
[3] = system: Mycolicibacterium smegmatis; assay: Antimycobacterial activity against Mycobacterium smegmatis incubated for 48 hrs by resazurin microplate assay
[4] = system: Mycolicibacterium smegmatis; assay: Potentiation of erythromycin-induced antimycobacterial activity against Mycobacterium smegmatis assessed as erythromycin MIC90 at 25 ug/ml after 48 hrs by resazurin microplate assay (reference value: 10 ug/ml)
[5] = system: Mycolicibacterium smegmatis; assay: Potentiation of rifampicin-induced antimycobacterial activity against Mycobacterium smegmatis assessed as rifampicin MIC90 at 25 ug/ml after 48 hrs by resazurin microplate assay (reference value: 8 ug/ml)
[6] = system: Mycolicibacterium smegmatis; assay: Potentiation of kanamycin-induced antimycobacterial activity against Mycobacterium smegmatis assessed as kanamycin MIC90 at 25 ug/ml after 48 hrs by resazurin microplate assay (reference value: 2.5 ug/ml)
[7] = system: Mycolicibacterium smegmatis; assay: Potentiation of streptomycin-induced antimycobacterial activity against Mycobacterium smegmatis assessed as streptomycin MIC90 at 25 ug/ml after 48 hrs by resazurin microplate assay (reference value: 0.25 ug/ml)
[8] = system: Mycolicibacterium smegmatis; assay: Potentiation of erythromycin-induced antimycobacterial activity against Mycobacterium smegmatis assessed as reduction in erythromycin MIC90 at 25 ug/ml after 48 hrs by resazurin microplate assay relative to control
[9] = system: Mycolicibacterium smegmatis; assay: Potentiation of isoniazid-induced antimycobacterial activity against Mycobacterium smegmatis assessed as isoniazid MIC90 at 25 ug/ml after 48 hrs by resazurin microplate assay (reference value: 200 ug/ml)
[10] = system: Mycolicibacterium smegmatis; assay: Potentiation of vancomycin-induced antimycobacterial activity against Mycobacterium smegmatis assessed as vancomycin MIC90 at 25 ug/ml after 48 hrs by resazurin microplate assay (reference value: 0.5 ug/ml)

Structure (SMILES) | MIC [1] [µg/mL] | MIC [2] [µg/mL] | MIC90 [3] [µg/mL] | MIC90 [4] [µg/mL] | MIC90 [5] [µg/mL] | MIC90 [6] [µg/mL] | MIC90 [7] [µg/mL] | fold change (FC) [8] | MIC90 [9] [µg/mL] | MIC90 [10] [µg/mL]
O=Cc1cccc2c1[C@H]1[C@@H]3OC(=O)c4cccc(C=O)c4[C@@H]3[C@H]1OC2=O | > 128 | > 128 | > 25 |  |  |  |  |  |  | 
C[C@@H]1OCC2=C(CCOC2=O)[C@@H]1CO | > 128 | > 128 | > 25 |  |  |  |  |  |  | 
O=Cc1cccc2c(=O)occc12 | > 128 | > 128 | > 25 | 1.25 | 8 | 1 | 0.125 | 8 | 100 | 2.5
C[C@H]1[C@@H]2C(=O)OCC[C@@H]2C[C@H]1O | > 128 | > 128 | > 25 |  |  |  |  |  |  | 
C[C@@H]1OC=C2C(=O)OCC[C@H]2[C@@H]1C(=O)O | > 128 | > 128 | > 25 |  |  |  |  |  |  | 
C[C@@H]1OCC2=C(CCOC2=O)[C@H]1CO | > 128 | > 128 | > 25 | 1.25 | 8 | 1 | 0.125 | 8 | 100 | 0.125
COc1cc(/C=C/C(=O)OCCCCCCCCCCCCCCCCCCCCCCCCCCCCCC=O)ccc1O | > 128 | > 128 | > 25 | 2.5 | 8 | 1 | 0.125 |  | 100 | 2.5
C/C=C1\COC(OC)C2=C1CCOC2=O (centres undefined) | > 128 | > 128 | > 25 |  |  |  |  |  |  | 
C[C@@H]1Cc2cccc(O)c2C(=O)O1 [(-)-(R)-MELLEIN] | > 128 | > 128 | > 25 | 0.625 | 8 | 1 | 0.125 | 16 | 100 | 2.5
